# Data reported in PMC12628652, “A Validated UPLC‐MS/MS Method for Monitoring Temozolomide and Perillyl Alcohol Metabolites in Biological Matrices: Insights From a Preclinical Pharmacokinetic Study” (Biomedical Chromatography, 2025).
# Assays:
# [1] = Stability of analytes in rat plasma and tissue matrices (freeze-thaw, bench-top, autosampler); assay type: physicochemical; conditions: for Stability (ER %) Autosampler: 10°C for 24 h; for Stability (ER %) Bench-top: room temperature for 6 h; for Stability (ER %) Freeze/thaw: three freeze–thaw cycles over 24-h intervals
# Procedure: QC samples were prepared by spiking blank rat plasma with PA, AIC, and TMZ at three concentration levels: 30, 80, and 200 ng/mL. Internal standards (IS1 and IS2) were added to each sample at a final concentration of 100 ng/mL. Whole blood was obtained from untreated anesthetized rats that were euthanized as part of the study protocol. Blood samples were collected into heparinized tubes and centrifuged at 3500 rpm for 10 min at 20°C to separate plasma. Organs including the brain, lungs, kidneys, spleen, and liver were promptly excised and homogenized using a Marconi mechanical tissue homogenizer (5 mm probe) in phosphate‐buffered saline (PBS, pH 7.4) at a 1:5 (w/v) tissue‐to‐buffer ratio.
# For each matrix sample, 50 μL of homogenate or plasma was mixed with 50 μL of internal standard (IS) solution (100 ng/mL), followed by the addition of the respective working solution to reach the target analyte concentration. The volume was adjusted to 1 mL using an appropriate solvent mixture. Samples were centrifuged again at 3500 rpm for 10 min at 4°C. The resulting supernatants were filtered through 0.22 μm membrane filters prior to chromatographic analysis. All calibration standards and QC samples were prepared freshly on the day of analysis to minimize analyte degradation.
# The stability of PA, AIC, and TMZ in rat plasma was assessed under the following conditions using low, medium, and high QC levels: (1) Freeze–thaw stability: Three freeze–thaw cycles over 24‐h intervals; (2) Bench‐top stability: Storage at room temperature for 6 h; (3) Autosampler stability: Storage at 10°C for 24 h. Analytes were considered stable if the relative error (RE%) remained within ±15% (Tiwari and Tiwari [2010]).
# [2] = set-up: method as in Ostermann et al. [2004]; conditions: ref Ostermann et al. [2004]; cited from earlier work
# [3] = rat brain homogenate, 200 ng/mL
# [4] = rat kidney homogenate, 30 ng/mL
# [5] = rat kidney homogenate, 80 ng/mL
# [6] = rat kidney homogenate, 200 ng/mL
# [7] = rat liver homogenate, 200 ng/mL
# [8] = rat spleen homogenate, 30 ng/mL
# [9] = rat spleen homogenate, 80 ng/mL
# [10] = rat spleen homogenate, 200 ng/mL
smiles,measurement,setting,value
"C=C(C)[C@@H]1CC=C(C(=O)O)CC1 [PA, perillic acid]",Stability (ER %) Autosampler,"[1]; rat brain homogenate, 30 ng/mL",2.95%
same,Stability (ER %) Bench-top,"[1]; rat brain homogenate, 30 ng/mL",1.28%
same,Stability (ER %) Freeze/thaw,"[1]; rat brain homogenate, 30 ng/mL",1.93%
same,Stability (ER %) Autosampler,"[1]; rat brain homogenate, 80 ng/mL",2.37%
same,Stability (ER %) Bench-top,"[1]; rat brain homogenate, 80 ng/mL",10.03%
same,Stability (ER %) Freeze/thaw,"[1]; rat brain homogenate, 80 ng/mL",7.85%
same,Stability (ER %) Autosampler,[1]; [3],4.49%
same,Stability (ER %) Bench-top,[1]; [3],5.74%
same,Stability (ER %) Freeze/thaw,[1]; [3],2.46%
same,Stability (ER %) Autosampler,[1]; [4],4.24%
same,Stability (ER %) Bench-top,[1]; [4],9.61%
same,Stability (ER %) Freeze/thaw,[1]; [4],8.61%
same,Stability (ER %) Autosampler,[1]; [5],3.42%
same,Stability (ER %) Bench-top,[1]; [5],7.75%
same,Stability (ER %) Freeze/thaw,[1]; [5],7.99%
same,Stability (ER %) Autosampler,[1]; [6],3.31%
same,Stability (ER %) Bench-top,[1]; [6],1.36%
same,Stability (ER %) Freeze/thaw,[1]; [6],1.82%
same,Stability (ER %) Autosampler,"[1]; rat liver homogenate, 30 ng/mL",5.04%
same,Stability (ER %) Bench-top,"[1]; rat liver homogenate, 30 ng/mL",1.59%
same,Stability (ER %) Freeze/thaw,"[1]; rat liver homogenate, 30 ng/mL",1.52%
same,Stability (ER %) Autosampler,"[1]; rat liver homogenate, 80 ng/mL",2.92%
same,Stability (ER %) Bench-top,"[1]; rat liver homogenate, 80 ng/mL",2.49%
same,Stability (ER %) Freeze/thaw,"[1]; rat liver homogenate, 80 ng/mL",3.24%
same,Stability (ER %) Autosampler,[1]; [7],4.45%
same,Stability (ER %) Bench-top,[1]; [7],0.42%
same,Stability (ER %) Freeze/thaw,[1]; [7],2.39%
same,Stability (ER %) Autosampler,"[1]; rat lung homogenate, 30 ng/mL",4.01%
same,Stability (ER %) Bench-top,"[1]; rat lung homogenate, 30 ng/mL",1.39%
same,Stability (ER %) Freeze/thaw,"[1]; rat lung homogenate, 30 ng/mL",2.68%
same,Stability (ER %) Autosampler,"[1]; rat lung homogenate, 80 ng/mL",4.14%
same,Stability (ER %) Bench-top,"[1]; rat lung homogenate, 80 ng/mL",2.94%
same,Stability (ER %) Freeze/thaw,"[1]; rat lung homogenate, 80 ng/mL",4.23%
same,Stability (ER %) Autosampler,"[1]; rat lung homogenate, 200 ng/mL",3.04%
same,Stability (ER %) Bench-top,"[1]; rat lung homogenate, 200 ng/mL",8.02%
same,Stability (ER %) Freeze/thaw,"[1]; rat lung homogenate, 200 ng/mL",6.65%
same,Stability (ER %) Autosampler,"[1]; rat plasma, 30 ng/mL",10.61%
same,Stability (ER %) Bench-top,"[1]; rat plasma, 30 ng/mL",5.32%
same,Stability (ER %) Freeze/thaw,"[1]; rat plasma, 30 ng/mL",1.26%
same,Stability (ER %) Autosampler,"[1]; rat plasma, 80 ng/mL",14.01%
same,Stability (ER %) Bench-top,"[1]; rat plasma, 80 ng/mL",11.90%
same,Stability (ER %) Freeze/thaw,"[1]; rat plasma, 80 ng/mL",8.67%
same,Stability (ER %) Autosampler,"[1]; rat plasma, 200 ng/mL",3.21%
same,Stability (ER %) Bench-top,"[1]; rat plasma, 200 ng/mL",13.82%
same,Stability (ER %) Freeze/thaw,"[1]; rat plasma, 200 ng/mL",4.45%
same,Stability (ER %) Autosampler,[1]; [8],3.25%
same,Stability (ER %) Bench-top,[1]; [8],2.55%
same,Stability (ER %) Freeze/thaw,[1]; [8],2.72%
same,Stability (ER %) Autosampler,[1]; [9],2.24%
same,Stability (ER %) Bench-top,[1]; [9],6.84%
same,Stability (ER %) Freeze/thaw,[1]; [9],5.52%
same,Stability (ER %) Autosampler,[1]; [10],3.41%
same,Stability (ER %) Bench-top,[1]; [10],9.57%
same,Stability (ER %) Freeze/thaw,[1]; [10],8.51%
"Cn1nnc2c(C(N)=O)ncn2c1=O [TMZ, Temozolomide]",Stability (ER %) Autosampler,"[1]; rat brain homogenate, 30 ng/mL",1.65%
same,Stability (ER %) Bench-top,"[1]; rat brain homogenate, 30 ng/mL",1.48%
same,Stability (ER %) Freeze/thaw,"[1]; rat brain homogenate, 30 ng/mL",9.76%
same,Stability (ER %) Autosampler,"[1]; rat brain homogenate, 80 ng/mL",1.89%
same,Stability (ER %) Bench-top,"[1]; rat brain homogenate, 80 ng/mL",7.73%
same,Stability (ER %) Freeze/thaw,"[1]; rat brain homogenate, 80 ng/mL",0.84%
same,Stability (ER %) Autosampler,[1]; [3],4.29%
same,Stability (ER %) Bench-top,[1]; [3],2.32%
same,Stability (ER %) Freeze/thaw,[1]; [3],4.42%
same,Stability (ER %) Autosampler,[1]; [4],1.41%
same,Stability (ER %) Bench-top,[1]; [4],1.99%
same,Stability (ER %) Freeze/thaw,[1]; [4],3.69%
same,Stability (ER %) Autosampler,[1]; [5],3.14%
same,Stability (ER %) Bench-top,[1]; [5],8.22%
same,Stability (ER %) Freeze/thaw,[1]; [5],9.44%
same,Stability (ER %) Autosampler,[1]; [6],4.92%
same,Stability (ER %) Bench-top,[1]; [6],3.77%
same,Stability (ER %) Freeze/thaw,[1]; [6],4.52%
same,Stability (ER %) Autosampler,"[1]; rat liver homogenate, 30 ng/mL",3.82%
same,Stability (ER %) Bench-top,"[1]; rat liver homogenate, 30 ng/mL",1.49%
same,Stability (ER %) Freeze/thaw,"[1]; rat liver homogenate, 30 ng/mL",5.67%
same,Stability (ER %) Autosampler,"[1]; rat liver homogenate, 80 ng/mL",4.07%
same,Stability (ER %) Bench-top,"[1]; rat liver homogenate, 80 ng/mL",6.41%
same,Stability (ER %) Freeze/thaw,"[1]; rat liver homogenate, 80 ng/mL",8.17%
same,Stability (ER %) Autosampler,[1]; [7],3.33%
same,Stability (ER %) Bench-top,[1]; [7],1.57%
same,Stability (ER %) Freeze/thaw,[1]; [7],1.54%
same,Stability (ER %) Autosampler,"[1]; rat lung homogenate, 30 ng/mL",4.82%
same,Stability (ER %) Bench-top,"[1]; rat lung homogenate, 30 ng/mL",7.99%
same,Stability (ER %) Freeze/thaw,"[1]; rat lung homogenate, 30 ng/mL",6.24%
same,Stability (ER %) Autosampler,"[1]; rat lung homogenate, 80 ng/mL",3.02%
same,Stability (ER %) Bench-top,"[1]; rat lung homogenate, 80 ng/mL",9.32%
same,Stability (ER %) Freeze/thaw,"[1]; rat lung homogenate, 80 ng/mL",7.19%
same,Stability (ER %) Autosampler,"[1]; rat lung homogenate, 200 ng/mL",2.51%
same,Stability (ER %) Bench-top,"[1]; rat lung homogenate, 200 ng/mL",5.54%
same,Stability (ER %) Freeze/thaw,"[1]; rat lung homogenate, 200 ng/mL",1.34%
same,Stability (ER %) Autosampler,"[1]; rat plasma, 30 ng/mL",12.84%
same,Stability (ER %) Bench-top,"[1]; rat plasma, 30 ng/mL",1.39%
same,Stability (ER %) Freeze/thaw,"[1]; rat plasma, 30 ng/mL",3.94%
same,Stability (ER %) Autosampler,"[1]; rat plasma, 80 ng/mL",5.39%
same,Stability (ER %) Bench-top,"[1]; rat plasma, 80 ng/mL",3.94%
same,Stability (ER %) Freeze/thaw,"[1]; rat plasma, 80 ng/mL",4.29%
same,Stability (ER %) Autosampler,"[1]; rat plasma, 200 ng/mL",13.24%
same,Stability (ER %) Bench-top,"[1]; rat plasma, 200 ng/mL",1.94%
same,Stability (ER %) Freeze/thaw,"[1]; rat plasma, 200 ng/mL",9.83%
same,Stability (ER %) Autosampler,[1]; [8],2.64%
same,Stability (ER %) Bench-top,[1]; [8],6.41%
same,Stability (ER %) Freeze/thaw,[1]; [8],5.86%
same,Stability (ER %) Autosampler,[1]; [9],2.61%
same,Stability (ER %) Bench-top,[1]; [9],1.35%
same,Stability (ER %) Freeze/thaw,[1]; [9],1.35%
same,Stability (ER %) Autosampler,[1]; [10],2.22%
same,Stability (ER %) Bench-top,[1]; [10],1.05%
same,Stability (ER %) Freeze/thaw,[1]; [10],3.86%
same,share of the plasma concentration reaching brain tissues,[2],~ 20%
